# Data published in article PMC8186431, “Synthesis and biological evaluation of thiazolidinedione derivatives with high ligand efficiency to P. aeruginosa PhzS” (Journal of Enzyme Inhibition and Medicinal Chemistry, 2021).
# “Also recorded” adds a separate entry of the source.
# Key:
# PaPhzS-FITC = target: T1, PaPhzS-FITC (Pseudomonas aeruginosa, UniProt Q9HWG9); test: Affinity to covalently modified PaPhzS (FITC fluorescence); format: binding, P. aeruginosa; conditions: for BEI (FITC): BEI: (pKd/MW)×1000, from PaPhzS-FITC Kd; for LE (FITC): LE: 1.4*pKd/HA, from PaPhzS-FITC Kd; for affinity to PaPhzS, in words: PaPhzS-FITC assay
# T1 construct: implied by pET28a and the HisTrap purification); FITC (chemical covalent label, not a peptide; made in house; host or cells: E. coli Rosetta (DE3)
# Protocol: PaPhzS (2 mg/mL) was incubated with fluorescein-5-isothiocyanate (FITC) dye (6 mg/mL) containing 50 mM HEPES (pH 8.0) for 2 h, at 25 °C. Then, the solution was loaded on a Hi-Trap HP desalting column (GE Healthcare), previously equilibrated with 50 mM HEPES buffer (pH 8) and 2 CV of the same buffer were injected. The absorbance of the collected fractions was monitored at 280 nm and 490 nm and those with a molar ratio ranging from 0.3 and 1.0[55] were employed for the Kd calculation experiments, as follows: The fluorescence of PaPhzS-FITC, at 25 °C, using in a real-time thermocycler (AppliedBiosystem7500) equipped with the FAN filter (excitation 498 nm and emission 530 nm wavelengths) for 10 min in the presence of different concentrations of each compound (3.12–100.0 µM). The Raw fluorescence data, recorded within the Applied Biosystems 7500 Software v2.0, was employed for non-linear regression analysis (three parameters) (Equation 1), as available in GraphPad Prism 8.0 software (GraphPadV® Software, San Diego, CA, USA, www.graphpad.com). All experiments were carried out in triplicate using 96-well PCR plate (PCR plates 96 well BioRad®), manually sealed with transparent capping strips (Flatcap strips BioRad®).
# PaPhzS = target: T2, PaPhzS (Pseudomonas aeruginosa, UniProt Q9HWG9); test: Compounds' affinity calculation by TSA (fraction of unfolded protein, DSFit software); format: binding, P. aeruginosa; conditions: for BEI (DSFit software): BEI: (pKd/MW)×1000, from DSFit Kd; for Kd: Kd (DSFit software), TSA, fraction of unfolded PaPhzS at 43 °C, PaPhzS 5 µM, ligand 3.12 to 200 µM; for LE (DSFit software): LE: 1.4*pKd/HA, from DSFit Kd
# T2 construct: implied by pET28a and the HisTrap purification; made in house; host or cells: E. coli Rosetta (DE3)
# Protocol: The effect of ligand’s concentration (ranging from 3.12 to 200 µM) over the PaPhzS Tm (5 µM final concentration) was evaluated using the same parameters described in section (2.2.2). […] The ΔCp value (0.69) required for this calculation was predicted by hydrophobic surface area-based method available on http://www.ibi.vu.nl/programs/bicepwww/. Briefly, the heat capacity (C) was calculated at two temperatures: 25 °C (before PhzS unfolding [T1]) and 50 °C (after PzhS unfolding [T2]) using Equation (2). C = 332.66 ± 18.9 X (273.15 − T) + 52089 ± 1353 (2) [drawing 2] where T stands for temperature in Kelvin. Therefore T1 = 298.15 K, T2 = 323.15 K.
# Bai and co-workers devised an elegant workaround that limitation, which relies on the percentage of unfolded protein at a fixed temperature. […] According to Bai and co-workers (2019) Kd values close to the protein concentration (5 µM) or lower should be taken with scepticism. […] As these Kd values were obtained at a temperature higher than the physiologic one, we decided to employ an orthogonal assay to evaluate the compounds’ affinity. In order to achieve this goal, PaPhzS was labelled with FITC and the effects of different concentration of each inhibitor on the covalently modified PaPhzS was monitored at 25 °C (Figure 5).
# [1] = target: T3, PhzS from P. aeruginosa (PaPhzS) (Pseudomonas aeruginosa, UniProt Q9HWG9); test: Thermal shift assay (TSA) screening of thiazolidinedione derivatives; format: binding; conditions: different concentrations (3.12–100.0 µM)
# T3 construct: implied by pET28a and the HisTrap purification; made in house; host or cells: E. coli Rosetta (DE3)
# Protocol: TSA assays were performed on Applied Biosystems 7500 RT-PCR (Applied Biosystems, Foster City, CA USA), fitted with custom filter sets. All assays were carried out in triplicate on a 96-well PCR plate (PCR plates 96 well BioRad®), manually sealed with transparent capping strips (Flatcap strips BioRad®). The plates were centrifuged for 2 min, 2000 rpm, at 25 °C and then the fluorescence of SYPRO^TM orange (S6650) was monitored (excitation wavelength= 492 nm and emission wavelength= 610 nm), while the plate was heated from 25 to 85 °C, in increments of 1 °C per minute.
# The TSA conditions employed in this work were previously optimised. Briefly, 5 µl of PaPhzS (5 µM final concentration), 1 µl of SYPRO^TM orange (5X), 13 µl of assay buffer (50 mM potassium phosphate, 300 mM NaCl, pH 8), and 1 µl DMSO (5% v/v), as a negative control, or the putative inhibitor (diluted in DMSO) were added to each well. All experiments were carried out in triplicate
# Raw fluorescence data were recorded within the Applied Biosystems 7500 Software v2.0, and then exported to NAMI[52] for Tm calculation by the first-derivative method.
# PhzS from P. aeruginosa = target: PhzS from P. aeruginosa; parameters: method as in PMID 32772556; conditions: Kd value calculated by microscale thermophoresis; cited from earlier work
# T3 sequence (Q9HWG9 whole entry): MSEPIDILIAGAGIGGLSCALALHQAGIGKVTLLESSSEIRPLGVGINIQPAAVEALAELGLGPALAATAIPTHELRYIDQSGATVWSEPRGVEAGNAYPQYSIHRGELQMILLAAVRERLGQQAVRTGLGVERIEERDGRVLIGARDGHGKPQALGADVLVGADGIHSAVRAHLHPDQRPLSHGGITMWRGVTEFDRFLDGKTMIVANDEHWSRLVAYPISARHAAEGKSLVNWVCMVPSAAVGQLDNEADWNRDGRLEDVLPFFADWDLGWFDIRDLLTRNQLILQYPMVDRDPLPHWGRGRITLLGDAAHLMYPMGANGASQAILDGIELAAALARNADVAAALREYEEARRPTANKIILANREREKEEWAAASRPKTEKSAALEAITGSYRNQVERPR
# T2 sequence (Q9HWG9 whole entry): as above
# T1 sequence (Q9HWG9 whole entry): as above
SMILES,Kd (PaPhzS-FITC) [µM],"affinity to PaPhzS, in words (PaPhzS-FITC)",BEI (DSFit software) (PaPhzS),Kd (PaPhzS) [µM],LE (DSFit software) (PaPhzS),concentration-response profile of ΔTm [1],melting point [°C],also measured
O=C1NC(=O)/C(=C/c2cc(Cl)ccc2O)S1 [Compound 16],6.18 ± 0.2,low micromolar ligands,21.0,4.2,0.47,clear concentration-response profile,–,BEI (FITC) (PaPhzS-FITC): 20.42; BEI (FITC) (PaPhzS-FITC; listed as Mol 16): 20.4; LE (FITC) (PaPhzS-FITC; listed as Mol 16): 0.45
Cc1ccc(/C=C2\SC(=O)NC2=O)cc1Br,–,–,–,–,–,–,196 to 197,–
O=C1NC(=O)/C(=C/c2cncc3ccccc23)S1,–,–,–,–,–,–,118 to 119.5,–
O=C1NC(=O)C(=Cc2cc(Cl)cc(Br)c2O)S1 [Compound 15],166 ± 0.5,low affinity; also recorded: reduced affinity,13.3,37.2,0.36,clear concentration-response profile,–,BEI (FITC) (PaPhzS-FITC): 11.4; LE (FITC) (PaPhzS-FITC): 0.31
"COc1ccc(/C=C2\SC(=O)NC2=O)c(Br)c1O [Compound 20, (Z) 5–(2-bromo-3-hydroxy-4-methoxybenzylidene)thiazolidine-2,4-dione]",3.3 ± 0.3,low micromolar ligands,15.0,10.5,0.38,clear concentration-response profile,245,BEI (FITC) (PaPhzS-FITC; listed as Mol 20): 16.6; LE (FITC) (PaPhzS-FITC; listed as Mol 20): 0.42
"O=C1S/C(=C\c2c(Cl)cccc2Cl)C(=O)N1Cc1cccc(Cl)c1 [Compound 3, (Z)-3–(3-chlorobenzyl)-5–(2,6-dichlorobenzylidene)thiazolidine-2,4-dione]",–,–,–,–,–,–,110 to 111,–
COc1ccc(C(=O)CN2C(=O)S/C(=C\c3ccc(C)cc3)C2=O)cc1,–,–,–,–,–,–,174 to 176,–
COCn1cc(/C=C2\SC(=O)NC2=O)c2ccccc21 [Compound 33],84.2 ± 0.2,low affinity,14.9,50,0.30,clear concentration-response profile,–,BEI (FITC) (PaPhzS-FITC): 14.1; LE (FITC) (PaPhzS-FITC): 0.28
"COc1cc(OC)c(OC)cc1/C=C1\SC(=O)NC1=O [Compound 28, (Z-5–(2,4,5-trimethoxybenzylidene)thiazolidine-2,4-dione)]",–,–,–,–,–,clear concentration-response profile,158 to 160,–
"O=C1NC(=O)/C(=C/C=C/c2ccccc2[N+](=O)[O-])S1 [Compound 38, (Z)-5-((E)-3–(2-nitrophenyl)allylidene)thiazolidine-2,4-dione]",–,–,–,–,–,small variation in ΔTm,119 to 120,–
O=C1S/C(=C\c2cc(Cl)ccc2O)C(=O)N1Cc1cccc(Cl)c1,–,–,–,–,–,–,201 to 202,–
O=C1NC(=O)/C(=C/c2c(O)ccc3ccccc23)S1,–,–,–,–,–,–,194 to 195,–
"O=C1NC(=O)/C(=C\c2ccc(OCc3nc4ccccc4c(=O)n3-c3ccccc3)cc2)S1 [A, (E)-5–(4-((4-oxo-3-phenyl-3,4-dihydroquinazolin-2-yl)methoxy)benzylidene)thiazolidine-2,4-dione, reference compound]",–,–,11.0,9.3,0.21,–,–,Kd (PhzS from P. aeruginosa): 18 µM
